# Laboratory results as given in paper PMC6345779, “Hypoculoside, a sphingoid base-like compound from Acremonium disrupts the membrane integrity of yeast cells” (Scientific Reports, 2019).
# Experiments:
# [1] = test system: Saccharomyces cerevisiae cells; assay: Recovery of yeast cells on compound-free YPD agar after treatment (cytocidal vs cytostatic); assay type: cell-based; details: 21 µM for 24 h, then transfer to hypoculoside-free YPD agar plates
# Procedure: We evaluated the potency of hypoculoside by examining its effect on the growth of Candida albicans strain (SC5314) using the Clinical and Laboratory Standards Institute (CLSI) guidelines. We used the well-known antifungal amphotericin B as a positive control. We exposed logarithmically growing Candida albicans cells to hypoculoside and amphotericin B at various concentrations and monitored the growth by recording the OD600 nm after 24 hours. […] We also tested the effect of hypoculoside on the growth of the Saccharomyces cerevisiae strain (BY4743). […] To test whether hypoculoside has cytocidal or cytostatic activity, we examined the ability of Saccharomyces cerevisiae cells to recover following treatment with either hypoculoside (21 µM) or DMSO for 24 h.
# Legends for Supplementary figures and tables
# Figure S1 Analysis of hypoculoside by MS/MS
# Collision-Induced dissociation (CID) MS/MS fragmentation spectra of hypoculoside (8) generated at energies of 10 eV, 20 eV and 40 eV are depicted in panels A, B and C […]
# Figure S2 Hypoculoside has antifungal, antibacterial and mammalian cytotoxic […]
# B. Saccharomyces cerevisiae cultures in duplicate were treated with hypoculoside at the indicated concentrations in YPD medium at 30 °C for 24 hours. Growth of the yeast cultures as measured by OD600 nm is plotted against hypoculoside concentration. […]
# Wild type yeast cells = assay: FM 4-64FX fluorescence microscopy (endocytosis / membrane integrity); assay type: cell-based, Saccharomyces cerevisiae; details: 5.4 µM pre-treatment for 30 minutes
# Procedure: To test if hypoculoside affects endocytosis, we used a dye FM 4–64FX which is a fixable analog of the FM 4-64 membrane stain. We incubated logarithmically growing yeast cells with either DMSO or hypoculoside for 30 minutes and then washed the cells off the compound and resuspended them in fresh growth medium containing FM 4-64FX to visualize endocytosis and vacuolar structure. In DMSO pre-treated cells, FM 4-64FX first stained the plasma membrane (Fig. 8A) at t = 0 and stained the cytoplasmic structures after 30′ indicating its uptake by endocytosis (Fig. 8A).
# Figure 8 Hypoculoside but not hypoculine disrupts the membrane integrity of yeast cells. (A) Wild type yeast cells pre-treated with either DMSO or hypoculoside (5.4 μM) were exposed to FM 4-64FX. Uptake of FM 4-64FX after 0′, 30′ and 120′ was analyzed by fluorescence microscopy of fixed cells. […] They were then treated with propidium iodide (PI) and percentage of PI-staining cells was assayed by fluorescence microscopy. Representative images of cells visualized by bright field and fluorescence microscopy are shown along with quantification of PI-staining cells (N = 100 cells) in (C).
# Labelling of yeast cells with FM4-64FX (Invitrogen) was done as previously reported. […] The images were acquired using an inverted fluorescence microscope ZEISS LSM 5 LIVE (Carl Zeiss, Oberkochen, Germany).
structure (smiles),measurement,setting,value
"CC(N)C(O)CCCCCCCCCCCCCCCCCCC(O)C(C)OC1OC(CO)C(O)C(O)C1O (centres unmarked) [hypoculoside, Hypoculoside]",cytocidal or cytostatic activity (ability to recover following treatment),[1],cytocidal activity
same,FM 4-64FX staining pattern of pre-treated cells,Wild type yeast cells,stained the cytoplasmic contents even at t = 0
